How the values were obtained:
[1] = Anti-fatty liver effect (triglyceride amount in liver); format: in vivo; settings: homo low-density lipoprotein receptor deficient mouse, choline-deficient amino acid diet, oral once per day for three weeks
Source text: As representative examples of anti-fatty liver effect, the action on fatty liver caused by non-alcoholic steatohepatitis was verified by the following method.
For efficacy evaluation of action on the above-mentioned fibrosis, 9-week-old, male, homo low-density lipoprotein receptor deficient mouse (Jackson Laboratories (Bar Harbor Me., USA)) was used. Specifically, a choline-deficient amino acid diet (A08111307, Research Diets, New Brunswick, N.J., USA) was fed to the above-mentioned mouse for one week, and a drug was administered for three weeks, and then the triglyceride amount in liver after the drug administration was measured.
For the above-mentioned drug administration group, the test compound suspended in 0.5% methylcellulose solution was orally administered by gavage using a stomach gavage needle once per day (n=8). […]
The measurement of the triglyceride amount in liver was performed by the following method. […] The total weight of the isolated liver was measured, and a part of the liver was immediately cryopreserved using dry ice. […] The dried substance was dissolved in 2-propanol, and the triglyceride concentration in the solution was measured by autoanalyzer (Hitachi 7180 type). The total triglyceride amount in the liver (mg/liver) was calculated from the weight of the liver used for the measurement and the total liver weight. […]

[2] = tested on: HCT116 cells; assay: Growth inhibitory activity on HCT116 cell (CellTiter-Glo); format: cell-based; settings: Homo sapiens, HCT-116, 72 h; test compound 1 μM, 3 days; read-out: HCT116 cell proliferation inhibitory rate (%) at 1 μM
Description: The growth inhibitory activity of the compound on HCT116 cell was evaluated by the following method.
HCT116 cells were seeded in a 384 well blackplate at 900 cells/[…]/well, and maintained in an assay medium (RPMI medium (Wako) containing 2% fetal bovine serum, 50 Unit/mL penicillin and […] streptomycin (Invitrogen)). The next day, a test compound dissolved in dimethyl sulfoxide (DMSO) was diluted with the assay medium, and the obtained compound solution was added by […] to each well of a plate containing HCT116 cells, and incubated at 37° C., 5% CO2 (test compound addition group).
A similar reaction was performed without adding a test compound (test compound non-addition group).
Furthermore, a similar reaction was performed under the conditions without adding HCT116 cell and a test compound (control group).
After 3 days, […] of a CellTiter-Glo reagent (Promega KK) was added to the well, and the mixture was stirred for 10 min. Thereafter, the luminescence value of each well was measured by the EnVision™ multilabel counter (Perkin Elmer Inc.).
The HCT116 cell proliferation inhibitory rate (%) of the test compound was determined by the following calculation formula. (1−(luminescence of test compound addition group−luminescence of control group)÷(luminescence of test compound non-addition group−luminescence of control group))×100
The HCT116 cell proliferation inhibitory rates (%) of the test compound (1 μM) are shown below.

C[C@@H](COc1cnc(-c2ccc(Oc3cccc(OCC4CC4)c3)cc2)o1)NC(N)=O [Example 82, 1-((2S)-1-((2-(4-(3-(cyclopropylmethoxy)phenoxy)phenyl)-1,3-oxazol-5-yl)oxy)propan-2-yl)urea]
inhibitory effect on fatty liver caused by non-alcoholic steatohepatitis (triglyceride amount in liver, FIG. 2) [1]: superior inhibitory effect on fatty liver caused by non-alcoholic steatohepatitis | inhibition at 1 µM [2]: 33%

Reference: US10252997B2, “Monocyclic compound” (Takeda Pharmaceutical Company Limited, priority 2015, dated 2019)
